Assays:
Assay in all cases: relative viability (nuclei count vs DMSO), 5 days (fraction); higher = more cells survive
NCI-H460 = test system: NCI-H460
Outline: (§1)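 Five library-drug doses in √10 steps were combined with a fixed anchor-drug dose, or a single drug was given alone, by pin tool to lung cancer cell lines in 1536-well plates the day after seeding. Nuclei were stained and counted after 5 days. Relative viability is the nuclei count in treated wells over that in vehicle wells, taken as the median of duplicate plates.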

LXF-289 = test system: LXF-289
Outline: as §1

PC-14 = test system: PC-14
Outline: as §1

NCI-H2009 = test system: NCI-H2009
Outline: as §1

NCI-H2023 = test system: NCI-H2023
Outline: as §1

HARA = test system: HARA
Outline: as §1

NCI-H1915 = test system: NCI-H1915
Outline: as §1

A-427 = test system: A-427
Outline: as §1

NCI-H3122 = test system: NCI-H3122
Outline: as §1

UMC-11 = test system: UMC-11
Outline: as §1

HCC-366 = test system: HCC-366
Outline: as §1

SK-LU-1 = test system: SK-LU-1
Outline: as §1

NCI-H1755 = test system: NCI-H1755
Outline: as §1

H3255 = test system: H3255
Outline: as §1

PC-3 [JPC-3] = test system: PC-3 [JPC-3]
Outline: as §1

NCI-H1975 = test system: NCI-H1975
Outline: as §1

NCI-H1437 = test system: NCI-H1437
Outline: as §1

NCI-H650 = test system: NCI-H650
Outline: as §1

NCI-H1793 = test system: NCI-H1793
Outline: as §1

NCI-H596 = test system: NCI-H596
Outline: as §1

HCC-15 = test system: HCC-15
Outline: as §1

NCI-H441 = test system: NCI-H441
Outline: as §1

NCI-H2405 = test system: NCI-H2405
Outline: as §1

CCCCCCCCCCCC1=C(O)C(=O)C=C(O)C1=O [Embelin] + Nc1ncn([C@H]2C[C@H](O)[C@@H](CO)O2)c(=O)n1 [Decitabine] (partner 2 µM)
relative viability (NCI-H460; first compound 0.08 µM): 0.455
relative viability (NCI-H460; first compound 0.8 µM): 0.511
relative viability (NCI-H460; first compound 2.53 µM): 0.577
relative viability (NCI-H460; first compound 8 µM): 0.254
relative viability (LXF-289; first compound 0.08 µM): 0.396
relative viability (LXF-289; first compound 0.8 µM): 0.419
relative viability (LXF-289; first compound 2.53 µM): 0.455
relative viability (LXF-289; first compound 8 µM): 0.352
relative viability (PC-14; first compound 0.08 µM): 0.254
relative viability (PC-14; first compound 0.8 µM): 0.21
relative viability (PC-14; first compound 2.53 µM): 0.163
relative viability (PC-14; first compound 8 µM): 0.209
relative viability (NCI-H2009; first compound 0.08 µM): 0.407
relative viability (NCI-H2009; first compound 0.8 µM): 0.412
relative viability (NCI-H2009; first compound 2.53 µM): 0.369
relative viability (NCI-H2009; first compound 8 µM): 0.351
relative viability (NCI-H2023; first compound 0.08 µM): 0.249
relative viability (NCI-H2023; first compound 0.8 µM): 0.234
relative viability (NCI-H2023; first compound 2.53 µM): 0.247
relative viability (NCI-H2023; first compound 8 µM): 0.155
relative viability (HARA; first compound 0.08 µM): 0.51
relative viability (HARA; first compound 0.8 µM): 0.549
relative viability (HARA; first compound 2.53 µM): 0.587
relative viability (HARA; first compound 8 µM): 0.573
relative viability (NCI-H1915; first compound 0.08 µM): 0.265
relative viability (NCI-H1915; first compound 0.8 µM): 0.241
relative viability (NCI-H1915; first compound 2.53 µM): 0.263
relative viability (NCI-H1915; first compound 8 µM): 0.264
relative viability (A-427; first compound 0.08 µM): 0.494
relative viability (A-427; first compound 0.8 µM): 0.555
relative viability (A-427; first compound 2.53 µM): 0.561
relative viability (A-427; first compound 8 µM): 0.54
relative viability (NCI-H3122; first compound 0.08 µM): 0.385
relative viability (NCI-H3122; first compound 0.8 µM): 0.446
relative viability (NCI-H3122; first compound 2.53 µM): 0.419
relative viability (NCI-H3122; first compound 8 µM): 0.397
relative viability (UMC-11; first compound 0.08 µM): 0.616
relative viability (UMC-11; first compound 0.8 µM): 0.608
relative viability (UMC-11; first compound 2.53 µM): 0.631
relative viability (UMC-11; first compound 8 µM): 0.553
relative viability (HCC-366; first compound 0.08 µM): 0.341
relative viability (HCC-366; first compound 0.8 µM): 0.306
relative viability (HCC-366; first compound 2.53 µM): 0.372
relative viability (HCC-366; first compound 8 µM): 0.336
relative viability (SK-LU-1; first compound 0.08 µM): 0.617
relative viability (SK-LU-1; first compound 0.8 µM): 0.683
relative viability (SK-LU-1; first compound 2.53 µM): 0.709
relative viability (SK-LU-1; first compound 8 µM): 0.641
relative viability (NCI-H1755; first compound 0.08 µM): 0.767
relative viability (NCI-H1755; first compound 0.8 µM): 0.72
relative viability (NCI-H1755; first compound 2.53 µM): 0.781
relative viability (NCI-H1755; first compound 8 µM): 0.753
relative viability (H3255; first compound 0.08 µM): 0.502
relative viability (H3255; first compound 0.8 µM): 0.783
relative viability (H3255; first compound 2.53 µM): 0.617
relative viability (H3255; first compound 8 µM): 0.656
relative viability (PC-3 [JPC-3]; first compound 0.08 µM): 0.776
relative viability (PC-3 [JPC-3]; first compound 0.8 µM): 0.882
relative viability (PC-3 [JPC-3]; first compound 2.53 µM): 0.919
relative viability (PC-3 [JPC-3]; first compound 8 µM): 0.821
relative viability (NCI-H1975; first compound 0.08 µM): 0.377
relative viability (NCI-H1975; first compound 0.8 µM): 0.432
relative viability (NCI-H1975; first compound 2.53 µM): 0.37
relative viability (NCI-H1975; first compound 8 µM): 0.586
relative viability (NCI-H1437; first compound 0.08 µM): 0.541
relative viability (NCI-H1437; first compound 0.8 µM): 0.623
relative viability (NCI-H1437; first compound 2.53 µM): 0.568
relative viability (NCI-H1437; first compound 8 µM): 0.41
relative viability (NCI-H650; first compound 0.08 µM): 0.322
relative viability (NCI-H650; first compound 0.8 µM): 0.371
relative viability (NCI-H650; first compound 2.53 µM): 0.337
relative viability (NCI-H650; first compound 8 µM): 0.297
relative viability (NCI-H1793; first compound 0.08 µM): 0.586
relative viability (NCI-H1793; first compound 0.8 µM): 0.625
relative viability (NCI-H1793; first compound 2.53 µM): 0.505
relative viability (NCI-H1793; first compound 8 µM): 0.549
relative viability (NCI-H596; first compound 0.08 µM): 0.945
relative viability (NCI-H596; first compound 0.8 µM): 0.958
relative viability (NCI-H596; first compound 2.53 µM): 1.19
relative viability (NCI-H596; first compound 8 µM): 1.06
relative viability (HCC-15; first compound 0.08 µM): 0.619
relative viability (HCC-15; first compound 0.8 µM): 0.694
relative viability (HCC-15; first compound 2.53 µM): 0.697
relative viability (HCC-15; first compound 8 µM): 0.617
relative viability (NCI-H441; first compound 0.08 µM): 0.221
relative viability (NCI-H441; first compound 0.8 µM): 0.268
relative viability (NCI-H441; first compound 2.53 µM): 0.198
relative viability (NCI-H441; first compound 8 µM): 0.237
relative viability (NCI-H2405; first compound 0.08 µM): 0.764
relative viability (NCI-H2405; first compound 0.8 µM): 0.89
relative viability (NCI-H2405; first compound 2.53 µM): 0.738
relative viability (NCI-H2405; first compound 8 µM): 0.703
